# Measurements published in patent US20040097594A1 (priority 1998, published 2004).
# Like-named read-outs stand apart in the source and are kept apart here.
# Tests used:
# HIV-1 protease = HIV-1 protease (Human immunodeficiency virus type 1 group M subtype B, UniProt P04585); test: biochemical
# HIV-1 (strain IIIB) = test: microbe, parasite or virus in culture; format: cell-based; details: lower line of each compound's entry, read-out: IC50 (MT-4 cells)
# [1] = Human immunodeficiency virus 1, 120 h, MT4 cells infected with HIV-1 strain IIIB, 5 days
# [2] = HIV-1 protease, upper line of each compound's entry, read-out: Ki (enzyme)
# [3] = Human immunodeficiency virus 1, IIIB, MT4, 120 h, […]
Compound,Ki (HIV-1 protease) [nM],IC50 (HIV-1 (strain IIIB); [1]) [nM],Ki (HIV-1 protease; [2]) [nM],IC50 (HIV-1 (strain IIIB); [3]) [nM]
"COc1ccc(S(=O)(=O)N(C[C@@H](O)[C@H](Cc2ccccc2)NC(=O)OC2CO[C@H]3OCC[C@@H]23)OC2CCCCC2)cc1 (stereo partly drawn) [Compound 134, (3R,3aS,6aR)hexahydrofuro[2,3-b]furan-3-yl N-((1S,2R)-1-benzyl-3-(cyclohexyloxy)[(4-methoxyphenyl)sulfonyl]amino-2-hydroxypropyl)carbamate]",< 1,≤ 100,,
"O=C(N[C@@H](Cc1ccccc1)[C@H](O)CN(OC1CCCC1)S(=O)(=O)c1cccc(OCC(=O)N2CCOCC2)c1)O[C@H]1CO[C@H]2OCC[C@H]21 [Compound 135, (3R,3aS,6aR)hexahydrofuro[2,3-b]furan-3-yl N-[(1S,2R)-1-benzyl-3-((cyclopentyloxy)[3-(2-morpholino-2-oxoethoxy)phenyl]sulfonylamino)-2-hydroxypropyl]carbamate]",,≤ 100,1 to 10,
"NC(=O)COc1cccc(S(=O)(=O)N(C[C@@H](O)[C@H](Cc2ccccc2)NC(=O)OC2CO[C@H]3OCC[C@@H]23)OC2CCCC2)c1 (stereo partly drawn) [Compound 136, (3R,3aS,6aR)hexahydrofuro[2,3-b]furan-3-yl N-(1S,2R)-3-[[3-(2-amino-2-oxoethoxy)phenyl]sulfonyl(cyclopentyloxy)amino]-1-benzyl-2-hydroxypropylcarbamate]",,,< 1,≤ 100
"CON(C)C(=O)COc1cccc(S(=O)(=O)N(C[C@@H](O)[C@H](Cc2ccccc2)NC(=O)OC2CO[C@H]3OCC[C@@H]23)OC2CCCC2)c1 (stereo partly drawn) [Compound 137, (3R,3aS,6aR)hexahydrofuro[2,3-b]furan-3-yl N-((1S,2R)-1-benzyl-3-(cyclopentyloxy)[(3-2-[methoxy(methyl)amino]-2-oxoethoxyphenyl)sulfonyl]amino-2-hydroxypropyl)carbamate]",,≤ 100,< 1,
"O=C(N[C@@H](Cc1ccccc1)[C@H](O)CN(OC1CCCC1)S(=O)(=O)c1ccc2c(c1)OCO2)OC1CO[C@H]2OCC[C@@H]12 (stereo partly drawn) [Compound 138, (3R,3aS,6aR)hexahydrofuro[2,3-b]furan-3-yl N-(1S,2R)-3-[(1,3-benzodioxol-5-ylsulfonyl)(cyclopentyloxy)amino)-1-benzyl-2-hydroxypropylcarbamate]",< 1,≤ 100,,
"O=C(N[C@@H](Cc1ccccc1)[C@H](O)CN(OC1CCCC1)S(=O)(=O)c1ccc2c(c1)OCCO2)OC1CO[C@H]2OCC[C@@H]12 (stereo partly drawn) [Compound 139, (3R,3aS,6aR)hexahydrofuro[2,3-b]furan-3-yl N-(1S,2R)-1-benzyl-3-[(cyclopentyloxy)(2,3-dihydro-1,4-benzodioxin-6-ylsulfonyl)amino]-2-hydroxypropylcarbamate]",< 1,≤ 100,,
"COc1ccc(S(=O)(=O)N(C[C@@H](O)[C@H](Cc2ccccc2)NC(=O)OC2CO[C@H]3OCC[C@@H]23)OC2CCCC2)cc1OC (stereo partly drawn) [Compound 140, (3R,3aS,6aR)hexahydrofuro[2,3-b]furan-3-yl N-((1S, 2R)-1-benzyl-3-(cyclopentyloxy)[(3,4-dimethoxyphenyl)sulfonyl]amino-2-hydroxypropyl)carbamate]",,≤ 100,< 1,
"CC(C)Oc1ccc(S(=O)(=O)N(C[C@@H](O)[C@H](Cc2ccccc2)NC(=O)OC2CO[C@H]3OCC[C@@H]23)OC2CCCC2)cc1 (stereo partly drawn) [Compound 141, (3R,3aS,6aR)hexahydrofuro[2,3-b]furan-3-yl N-((1S,2R)-1-benzyl-3-(cyclopentyloxy)[(4-isopropoxyphenyl)sulfonyl]amino-2-hydroxypropyl)carbamate]",,,< 1,> 1000
"CC(C)Oc1cccc(S(=O)(=O)N(C[C@@H](O)[C@H](Cc2ccccc2)NC(=O)OC2CO[C@H]3OCC[C@@H]23)OC2CCCC2)c1 (stereo partly drawn) [Compound 142, (3R,3aS,6aR)hexahydrofuro[2,3-b]furan-3-yl N-((1S,2R)-1-benzyl-3-(cyclopentyloxy)[(3-isopropoxyphenyl)sulfonyl]amino-2-hydroxypropyl)carbamate]",,,< 1,100 to 500
"O=C(N[C@@H](Cc1ccccc1)[C@@H](CN(OC1CCCC1)S(=O)(=O)c1ccc2c(c1)OCO2)OP(=O)(O)O)O[C@H]1CO[C@H]2OCC[C@H]21 [Compound 143, (3R,3aS,6aR)hexahydrofuro[2,3-b]furan-3-yl N-[(1S,2R)-3-[(1,3-benzodioxol-5-ylsulfonyl)(cyclopentyloxy)amino]-1-benzyl-2-(phosphonooxy)propyl]carbamate]",,≤ 100,< 1,
"O=C(N[C@@H](Cc1ccccc1)[C@@H](CN(OC1CCCC1)S(=O)(=O)c1ccc2c(c1)OCCO2)OP(=O)(O)O)O[C@H]1CO[C@H]2OCC[C@H]21 [Compound 144, (3R,3aS,6aR)hexahydrofuro[2,3-b]furan-3-yl N-[(1S,2R)-1-benzyl-3-[(cyclopentyloxy)(2,3-dihydro-1,4-benzodioxin-6-ylsulfonyl)amino]-2-(phosphonooxy)propyl]carbamate]",< 1,≤ 100,,
"COc1ccc(S(=O)(=O)N(C[C@@H](O)[C@H](Cc2ccccc2)NC(=O)OC2CO[C@H]3OCC[C@@H]23)OCC(C)C)cc1 (stereo partly drawn) [Compound 145, (3R,3aS,6aR)hexahydrofuro[2,3-b]furan-3-yl N-((1S,2R)-1-benzyl-2-hydroxy-3-isobutoxy[(4-methoxyphenyl)sulfonyl]aminopropyl)carbamate]",< 1,≤ 100,,
"Nc1ccc(S(=O)(=O)N(C[C@@H](O)[C@H](Cc2ccccc2)NC(=O)O[C@H]2CO[C@H]3OCC[C@H]32)OC2CCOCC2)cc1 [Compound 146, (3R,3aS,6aR)hexahydrofuro[2,3-b]furan-3-yl 3-[[(4-aminophenyl)sulfonyl](tetrahydro-2H-pyran-4-yloxy)amino]-1-benzyl-2-hydroxypropylcarbamate]",,≤ 100,< 1,
"Nc1cccc(S(=O)(=O)N(C[C@@H](O)[C@H](Cc2ccccc2)NC(=O)O[C@H]2CO[C@H]3OCC[C@H]32)OC2CCOCC2)c1 [Compound 147, (3R,3aS,6aR)hexahydrofuro[2,3-b]furan-3-yl 3-[[(3-aminophenyl)sulfonyl](tetrahydro-2H-pyran-4-yloxy)amino]-1-benzyl-2-hydroxypropylcarbamate]",,,< 1,≤ 100
"O=C(N[C@@H](Cc1ccccc1)[C@H](O)CN(OC1CCOCC1)S(=O)(=O)c1cccc(O)c1)O[C@H]1CO[C@H]2OCC[C@H]21 [Compound 148, (3R,3aS,6aR)hexahydrofuro[2,3-b]furan-3-yl 1-benzyl-2-hydroxy-3-[[(3-hydroxyphenyl)sulfonyl](tetrahydro-2H-pyran-4-yloxy)amino]propylcarbamate]",,≤ 100,< 1,
"O=C(N[C@@H](Cc1ccccc1)[C@H](O)CN(OC1CCOCC1)S(=O)(=O)c1ccc(O)cc1)O[C@H]1CO[C@H]2OCC[C@H]21 [Compound 149, (3R,3aS,6aR)hexahydrofuro[2,3-b]furan-3-yl 1-benzyl-2-hydroxy-3-[[(4-hydroxyphenyl)sulfonyl](tetrahydro-2H-pyran-4-yloxy)amino]propylcarbamate]",,≤ 100,< 1,
"O=C(N[C@@H](Cc1ccccc1)[C@H](O)CN(OC1CCOCC1)S(=O)(=O)c1ccc2c(c1)OCCO2)O[C@H]1CO[C@H]2OCC[C@H]21 [Compound 150, (3R,3aS,6aR)hexahydrofuro[2,3-b]furan-3-yl 1-benzyl-3-[(2,3-dihydro-1,4-benzodioxin-6-ylsulfonyl)(tetrahydro-2H-pyran-4-yloxy)amino]-2-hydroxypropylcarbamate]",,≤ 100,< 1,
"O=C(N[C@@H](Cc1ccccc1)[C@H](O)CN(OC1CCOCC1)S(=O)(=O)c1ccc2c(c1)OCO2)O[C@H]1CO[C@H]2OCC[C@H]21 [Compound 151, (3R,3aS,6aR)hexahydrofuro[2,3-b]furan-3-yl 3-[(1,3-benzodioxol-5-ylsulfonyl)(tetrahydro-2H-pyran-4-yloxy)amino]-1-benzyl-2-hydroxypropylcarbamate]",,,< 1,≤ 100
"Nc1ccc(S(=O)(=O)N(C[C@@H](O)[C@H](Cc2ccccc2)NC(=O)O[C@H]2CO[C@H]3OCC[C@H]32)OC2CCCCC2)cc1 [Compound 153, (3R,3aS,6aR)hexahydrofuro[2,3-b]furan-3-yl(1S,2R)-3-[[(4-aminophenyl)sulfonyl](cyclohexyloxy)amino]-1-benzyl-2-hydroxypropylcarbamate]",,≤ 100,< 1,
"Nc1cccc(S(=O)(=O)N(C[C@@H](O)[C@H](Cc2ccccc2)NC(=O)O[C@H]2CO[C@H]3OCC[C@H]32)OC2CCCCC2)c1 [Compound 154, (3R,3aS,6aR)hexahydrofuro[2,3-b]furan-3-yl(1S,2R)-3-[[(3-aminophenyl)sulfonyl](cyclohexyloxy)amino]-1-benzyl-2-hydroxypropylcarbamate]",,≤ 100,< 1,
"O=C(N[C@@H](Cc1ccccc1)[C@H](O)CN(OC1CCCCC1)S(=O)(=O)c1ccc2c(c1)OCO2)O[C@H]1CO[C@H]2OCC[C@H]21 [Compound 155, (3R,3aS,6aR)hexahydrofuro[2,3-b]furan-3-yl(1S,2R)-3-[(1,3-benzodioxol-5-ylsulfonyl)(cyclohexyloxy)amino]-1-benzyl-2-hydroxypropylcarbamate]",,≤ 100,< 1,
"O=C(N[C@@H](Cc1ccccc1)[C@H](O)CN(OC1CCCCC1)S(=O)(=O)c1ccc2c(c1)OCCO2)O[C@H]1CO[C@H]2OCC[C@H]21 [Compound 156, (3R,3aS,6aR)hexahydrofuro[2,3-b]furan-3-yl(1S,2R)-1-benzyl-3-[(cyclohexyloxy)(2,3-dihydro-1,4-benzodioxin-6-ylsulfonyl)amino]-2-hydroxypropylcarbamate]",,≤ 100,< 1,
